These are literature values, as cited in patent US6440950B1, “Selective and non-invasive visualization or treatment of vasculature” (The Johns Hopkins University, priority 1994, dated 2002).

The conditions of data set [1]: in vivo.
The conditions of data set [2]: in a number of species.
The conditions of data set [3]: used intraperitonially in a few patients.

Where only a bound is given, the exact number is not on record here.

With “aluminum phthalocyanine tetrasulfonate [AlPcS4]”, the water solubility result is “water soluble”. In data set [1], the “time to removal from the blood” value was ≤ 24 h. Besides, the toxicity entry in data set [2] is recorded as “non-toxic”. The side effects entry in data set [3] is listed as “no side effects have been reported”.
